Laboratory results from paper PMC10435442, “Developing multitarget coumarin based anti-breast cancer agents: synthesis and molecular modeling study” (Scientific Reports, 2023).
Converted amounts (≈) assume the structure as drawn. “And” between values parts separate entries of the source, which are not always exact repeats. Equal entries are not always repeated. Where two headings read alike, the source gives them in different places. Marks after values point to notes of the source that are not given here. One block for each compound: values may come before it.

What was measured:
[1] = test system: Caspase-9; assay: Caspase-9 level (ELISA) in treated cells; type: cell-based, human
[2] = target: EGFR (Homo sapiens, UniProt P00533); assay: In vitro EGFR enzyme inhibition assay (ELISA); conditions: for EGFR %inh: lab report 01-11-2021
[3] = test system: MDA-MB-231; assay: MTT cytotoxicity assay, MDA-MB-231; conditions: for IC50: Homo sapiens; for % viability: MDA
[4] = test system: Bcl-2; assay: Bcl-2 level (ELISA) in treated cells; type: cell-based, human
[5] = test system: MCF-7; assay: DNA flow cytometric cell cycle analysis, MCF-7; type: cell-based, human
[6] = test system: MCF-10A; assay: MTT cytotoxicity assay, nonmalignant MCF-10A; conditions: read-out: MCF-10A IC50; MTT, nonmalignant MCF-10A;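 note: MTT assay with absorbance read at 570 nm after 48 h exposure of cells to serial compound concentrations at 37 °C, testing selectivity against nonmalignant versus cancer cells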
[7] = test system: Bax; assay: Bax level (ELISA) in treated cells; type: cell-based, human
[8] = test system: MCF-7; assay: Annexin V-FITC/PI dual staining apoptosis assay, MCF-7; type: cell-based, human
[9] = in vitro; conditions: human, MCF-10A cells (nonmalignant breast)
[10] = test system: MCF-7; assay: MTT cytotoxicity assay, MCF-7; conditions: for IC50: Homo sapiens
[11] = test system: MDA-MB-231; assay: DNA flow cytometric cell cycle analysis, MDA-MB-231; type: cell-based, human
[12] = test system: MDA-MB-231; assay: Annexin V-FITC/PI dual staining apoptosis assay, MDA-MB-231; type: cell-based, human
[13] = target: T1, aromatase (ARO) (Homo sapiens, UniProt P11511); assay: In vitro aromatase (ARO) enzyme inhibition assay (ELISA)
T1 sequence (P11511 1-503): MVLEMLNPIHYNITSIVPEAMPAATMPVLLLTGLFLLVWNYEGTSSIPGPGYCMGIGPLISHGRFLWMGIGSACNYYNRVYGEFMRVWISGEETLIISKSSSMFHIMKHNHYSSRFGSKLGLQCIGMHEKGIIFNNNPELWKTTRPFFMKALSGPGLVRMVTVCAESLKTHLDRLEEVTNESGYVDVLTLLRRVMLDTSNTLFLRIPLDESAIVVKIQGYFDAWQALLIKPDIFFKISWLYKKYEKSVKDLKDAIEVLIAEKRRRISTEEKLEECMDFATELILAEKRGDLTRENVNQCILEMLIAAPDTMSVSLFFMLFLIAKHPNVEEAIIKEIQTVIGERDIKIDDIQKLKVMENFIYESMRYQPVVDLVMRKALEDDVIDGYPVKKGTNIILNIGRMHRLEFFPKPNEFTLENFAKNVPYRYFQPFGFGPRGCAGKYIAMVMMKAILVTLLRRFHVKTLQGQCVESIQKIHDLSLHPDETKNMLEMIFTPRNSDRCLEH

[14] = EGFR IC50, lab report 01-11-2021, 10 compounds
[15] = MDA-MB-231, read-out: MDA-MBA-231 IC50
[16] = MDA-MB-231, read-out: cytotoxicity_IC50 MDA
[17] = MCF-7, compared to untreated control
[18] = MCF7, read-out: cytotoxicity_IC50 mcf7
[19] = MDA-MB-231, compared to control

EGFR, sequence (P00533 25-1210): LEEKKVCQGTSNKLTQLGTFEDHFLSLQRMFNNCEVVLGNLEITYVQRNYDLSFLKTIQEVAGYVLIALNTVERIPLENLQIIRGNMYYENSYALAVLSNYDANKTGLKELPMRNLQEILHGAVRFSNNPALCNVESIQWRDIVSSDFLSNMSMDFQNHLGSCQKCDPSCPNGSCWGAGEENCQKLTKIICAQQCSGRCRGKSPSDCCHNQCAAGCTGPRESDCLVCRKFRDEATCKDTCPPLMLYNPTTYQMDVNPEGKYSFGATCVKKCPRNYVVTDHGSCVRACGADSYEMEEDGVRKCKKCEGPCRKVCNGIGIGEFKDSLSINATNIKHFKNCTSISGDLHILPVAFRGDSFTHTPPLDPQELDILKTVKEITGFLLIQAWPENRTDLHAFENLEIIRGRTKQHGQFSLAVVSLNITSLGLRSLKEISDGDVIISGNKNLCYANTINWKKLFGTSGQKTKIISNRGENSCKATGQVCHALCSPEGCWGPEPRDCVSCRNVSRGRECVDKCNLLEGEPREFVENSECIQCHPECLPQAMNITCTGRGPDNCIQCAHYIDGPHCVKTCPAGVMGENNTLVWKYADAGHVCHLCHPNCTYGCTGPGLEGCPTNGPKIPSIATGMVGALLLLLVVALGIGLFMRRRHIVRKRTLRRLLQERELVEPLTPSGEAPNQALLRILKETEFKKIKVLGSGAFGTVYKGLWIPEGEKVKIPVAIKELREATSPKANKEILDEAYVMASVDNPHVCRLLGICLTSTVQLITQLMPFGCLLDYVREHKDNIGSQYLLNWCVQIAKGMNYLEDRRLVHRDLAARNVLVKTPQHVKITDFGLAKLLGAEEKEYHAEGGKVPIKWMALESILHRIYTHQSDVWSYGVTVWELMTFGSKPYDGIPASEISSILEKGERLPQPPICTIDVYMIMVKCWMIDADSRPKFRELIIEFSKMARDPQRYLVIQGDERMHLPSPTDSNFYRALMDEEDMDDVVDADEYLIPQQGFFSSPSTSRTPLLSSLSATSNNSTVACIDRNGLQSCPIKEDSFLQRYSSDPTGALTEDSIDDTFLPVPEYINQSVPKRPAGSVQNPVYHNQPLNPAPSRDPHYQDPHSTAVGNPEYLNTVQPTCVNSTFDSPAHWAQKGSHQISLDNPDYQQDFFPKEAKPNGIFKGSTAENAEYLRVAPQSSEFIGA

IC50 [2, 14]: 1.1 µM | IC50 ([2]; EGFR inhibition IC50): 1.1 ± 0.066 µM | EGFR %inh ([2]; conc 10 (unit not given)): 83% | Percentage above Reference IC50 (potency relative to erlotinib) ([2]; reference Erlotinib): 7.636% | IC50 at 48 h [9]: 35.8 ± 1.74 µg/mL (≈ 79.8 µM)
SMILES: O=C(COc1ccc2c(COC(=O)c3ccccc3)cc(=O)oc2c1)c1ccc(Cl)cc1 [Compound 8, {7-[2-(4-Chlorophenyl)-2-oxoethoxy]-2-oxo-2H-chromen-4-yl}methyl benzoate]
Caspase-9 Conc. ([1]; MCF-7 cells): 30.39±2.56^abc ng/ml | IC50 [3, 15]: 27.5 ± 0.67 µM | IC50 [3, 16]: 12.3 ± 0.67 µg/mL | Bcl-2 Conc ([4]; MCF-7 cells): 3.291±0.36^a ng/ml | Comment (cell cycle phase of growth arrest) ([5]; MCF7): cell growth arrest@ G1/S | DNA content %G0-G1 ([5]; MCF7): 55.83% | DNA content %Pre-G1 ([5]; MCF7): 31.19% | DNA content %S ([5]; MCF7): 39.85% | %G0-G1 ([5]; MCF-7, IC50 concentration): 55.83^c ^ACD % | %Pre-G1 ([5]; MCF-7, IC50 concentration): 31.19^ae ^AB % | %S ([5]; MCF-7, IC50 concentration): 39.85 ^CE % | arrest in S phase [5, 17]: 1.33 folds | increase of apoptotic cells in pre-G1 phase [5, 17]: 18.67 folds | IC50 [6]: 79.9 ± 1.74 µM | Bax Conc ([7]; MCF-7 cells): 0.164±0.0056^acd ng/ml | Apoptosis Late ([8]; MCF7): 19.66 | Apoptosis Total ([8]; MCF7): 31.19 | % Apoptosis Early ([8]; MCF-7): 4.94^abcA % | % Apoptosis Late ([8]; MCF-7): 19.66^acA % | % Apoptosis Total ([8]; MCF-7): 31.19% and 31.19^abc % | % Necrosis ([8]; MCF-7): 6.59% | viability at 48 h, 0.4 ug [9]: 84.7% | viability at 48 h, 1.6 ug [9]: 69.5% | viability at 48 h, 6.25 ug [9]: 63.2% | viability at 48 h, 25 ug [9]: 51.8% | viability at 48 h, 100 ug [9]: 43.6% | IC50 ([10]; MCF7, read-out: MCF-7 IC50): 5.8 ± 0.16 µM | IC50 [10, 18]: 2.62 ± 0.16 µg/mL | % viability ([10]; MCF7, 0.4ug): 61.556% | % viability ([10]; MCF7, 1.6ug): 54.284% | % viability ([10]; MCF7, 6.3ug): 43.461% | % viability ([10]; MCF7, 25ug): 36.189% | % viability ([10]; MCF7, 100ug): 27.3957%

IC50 ([2]; EGFR IC50, lab report 01-09-2021, 04 compounds, reference Erlotinib): 0.177 µM | IC50 ([2]; EGFR inhibition IC50): 0.177 ± 0.0018 µM | inhibition at 10 pg/mL ([2]; read-out: EGFR %inh): 32% | inhibition at 0.0001 µg/mL ([2]; read-out: EGFR %inh): 50% | inhibition at 0.001 µg/mL ([2]; read-out: EGFR %inh): 73% | inhibition at 0.01 µg/mL ([2]; read-out: EGFR %inh): 88% | Percentage above Reference IC50 (potency relative to erlotinib) ([2]; reference Erlotinib): 81.92% | IC50 at 48 h [9]: 34.5 ± 1.68 µg/mL (≈ 72 µM)
SMILES: COc1ccccc1C(=O)OCc1cc(=O)oc2cc(OCC(=O)c3ccc(Cl)cc3)ccc12 [Compound 12, {7-[2-(4-Chlorophenyl)-2-oxoethoxy]-2-oxo-2H-chromen-4-yl}methyl 2-methoxybenzoate]
Caspase-9 Conc. ([1]; MDA-MB-231 cells): 19.16±0.41^df ng/ml | IC50 [3, 15]: 3.5 ± 0.09 µM | IC50 [3, 16]: 1.71 ± 0.09 µg/mL | % viability ([3]; 0.4ug (log conc. -0.41)): 56.517% | % viability ([3]; 1.6ug (log conc. 0.19)): 51.229% | % viability ([3]; 6.25ug (log conc. 0.8)): 44.231% | % viability ([3]; 25ug (log conc. 1.4)): 36.538% | % viability ([3]; 100ug (log conc. 2)): 26.8697% | Bcl-2 Conc ([4]; MDA-MB-231 cells): 2.934±0.154^be ng/ml | IC50 [6]: 72.1 ± 1.68 µM | Bax Conc ([7]; MDA-MB-231 cells): 0.36±0.0118^cef ng/ml | Comment (cell cycle phase of growth arrest) ([11]; MDA): cell growth arrest@ G1/S | DNA content %G0-G1 ([11]; MDA): 63.58% | DNA content %Pre-G1 ([11]; MDA): 46.28% | DNA content %S ([11]; MDA): 29.97% | %G0-G1 ([11]; MDA-MB-231, IC50 concentration): 63.58^abc ^ADE % | %Pre-G1 ([11]; MDA-MB-231, IC50 concentration): 46.28^cdg ^ABC % | %S ([11]; MDA-MB-231, IC50 concentration): 29.97 ^BDF % | cell cycle arrest at S phase [11, 19]: 1.08 folds | increase of apoptotic cells in pre-G1 phase [11, 19]: 22.46 folds | viability at 48 h, 0.4 ug [9]: 81.4% | viability at 48 h, 1.6 ug [9]: 75.8% | viability at 48 h, 6.25 ug [9]: 62.5% | viability at 48 h, 25 ug [9]: 55% | viability at 48 h, 100 ug [9]: 39.6% | IC50 ([10]; MCF7, read-out: MCF-7 IC50): 13.2 ± 0.38 µM | IC50 [10, 18]: 6.33 ± 0.38 µg/mL | % viability ([10]; MCF7, 0.4ug): 65.22% | % viability ([10]; MCF7, 1.6ug): 57.537% | % viability ([10]; MCF7, 6.3ug): 50.147% | % viability ([10]; MCF7, 25ug): 44.457% | % viability ([10]; MCF7, 100ug): 33.0205% | Apoptosis Early ([12]; MDA): 16.75 | Apoptosis Late ([12]; MDA): 23.02 | Apoptosis Total ([12]; MDA): 46.28 | Necrosis ([12]; MDA): 6.51 | % Apoptosis Early ([12]; MDA-MB-231): 16.75^beg % | % Apoptosis Late ([12]; MDA-MB-231): 23.02^eg % | % Apoptosis Total ([12]; MDA-MB-231): 46.28% and 46.28^be % | % Necrosis ([12]; MDA-MB-231): 6.51%

IC50 [2, 14]: 0.864 µM | IC50 ([2]; EGFR inhibition IC50): 0.864 ± 0.054 µM | EGFR %inh ([2]; conc 0.01 (unit not given)): 20% | EGFR %inh ([2]; conc 0.1 (unit not given)): 41% | EGFR %inh ([2]; conc 1 (unit not given)): 63% | EGFR %inh ([2]; conc 10 (unit not given)): 84% | Percentage above Reference IC50 (potency relative to erlotinib) ([2]; reference Erlotinib): 9.722% | IC50 at 48 h [9]: 55 ± 2.68 µg/mL (≈ 186 µM) | IC50 ([13]; ARO inhibition IC50): 0.216 ± 0.01 µM | IC50 ([13]; Aromatase IC50, lab report 14-12-2020): 0.216 µM | inhibition at 10 pg/mL ([13]; read-out: %inh): 37% | inhibition at 0.0001 µg/mL ([13]; read-out: %inh): 54% | inhibition at 0.001 µg/mL ([13]; read-out: %inh): 68% | inhibition at 0.01 µg/mL ([13]; read-out: %inh): 89%
SMILES: O=C(OCc1cc(=O)oc2cc(O)ccc12)c1ccccc1 [Compound 2, (7-Hydroxy-2-oxo-2H-chromen-4-yl)methyl benzoate]
IC50 [3, 15]: 51.9 ± 0.84 µM | IC50 [3, 16]: 15.4 ± 0.84 µg/mL | % viability ([3]; 0.4ug (log conc. -0.41)): 75.87% and 75.875% | % viability ([3]; 1.6ug (log conc. 0.19)): 65.56% and 65.561% | % viability ([3]; 6.25ug (log conc. 0.8)): 57.358% and 57.36% | % viability ([3]; 25ug (log conc. 1.4)): 47.527% and 47.53% | % viability ([3]; 100ug (log conc. 2)): 36.5501% and 36.55% | IC50 [6]: 186 ± 2.68 µM | viability at 48 h, 0.4 ug [9]: 88% | viability at 48 h, 1.6 ug [9]: 77.2% | viability at 48 h, 6.25 ug [9]: 66.5% | viability at 48 h, 25 ug [9]: 57.6% | viability at 48 h, 100 ug [9]: 44.4% | IC50 ([10]; MCF7, read-out: MCF-7 IC50): 6 ± 0.11 µM | IC50 [10, 18]: 1.78 ± 0.11 µg/mL | % viability ([10]; MCF7, 0.4ug): 58.765% | % viability ([10]; MCF7, 1.6ug): 52.469% | % viability ([10]; MCF7, 6.3ug): 41.79% | % viability ([10]; MCF7, 25ug): 32.963% | % viability ([10]; MCF7, 100ug): 21.0494%
